Results as given in patent US20240246960A1 (adMare Therapeutics Society, priority 2021, published 2024).
Where two headings read alike, the source gives them in different places.

Key:
[1] = biological target: T1, DNA-PK phosphorylation at Serine 2056 (Homo sapiens, UniProt P78527); test: Cellular Assay for Inhibition of DNA-PK Phosphorylation at Serine 2056 (FaDu cells, neocarzinostatin, sandwich ELISA); assay type: cell-based; details: Table 1
T1 construct: host or cells: FaDu
In short: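 Readout was pSer2056 and total DNA-PK, measured by sandwich ELISA on protein-normalized lysates. Prior to lysis, compound was applied to FaDu cells for 1 h (0.3% DMSO), followed by 2 h of 1 μg/mL neocarzinostatin. IC50 values were fitted from log concentration versus % inhibition normalized to DMSO and NCS controls.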

[2] = biological target: T2, pDNA-PK ser2056 induction in HCT116 spheroids (Homo sapiens, UniProt P78527); test: Multicellular tumour spheroid + radiation, pDNA-PK inhibition, HCT116; assay type: cell-based; details: 20 Gy
T2 construct: endogenous in cells; host or cells: HCT116 multicellular tumour spheroids
In short: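 EC50 (μM) is concentration halving radiation-induced pDNA-PK ser2056, scored by fluorescent immunostaining of cryosections 2 h after 20 Gy. HCT116 tumour spheroids (~0.5 mm, stirred, 20% O2/5% CO2, 37 °C) exposed to serial dilutions from 10 or 5 μM to 3.5 nM starting 1 h before irradiation.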

[3] = Example 7, spheroid, cell line HCT115 [sic], 20% O2, read-out: EC50 (pDNA-PK inhibition, immunohistochemical endpoint)
[4] = Example 9 Study 2, 20% O2, read-out: Spheroid Cell line: HCT116 Immunohistochemical endpoint pDNA-PK inhibition EC50
[5] = Example 8, spheroid, read-out: Cell line: HCT116 Immunohistochemical endpoint pDNA-PK inhibition EC50

| IC50 [1] [µM] | EC50 [2, 3] [µM] | EC50 [2, 4] [µM] | EC50 [2, 5] [µM] | SMILES |
| --- | --- | --- | --- | --- |
| 0.1 to 1 | 0.5 to 1 | 0.5 to 1 | – | c1cnc2cc(N3CCOCC3)nc(O[C@H]3CC[C@@H](Nc4ncc5sccc5n4)CC3)c2c1 [Compound 84, N-((1s,4s)-4-((7-Morpholino-1,6-naphthyridin-5-yl)oxy)cyclohexyl)thieno[3,2-d]pyrimidin-2-amine] |
| < 0.1 | 0.01 to 0.5 | 0.01 to 0.5 | – | c1cnc2cc(N3CCOCC3)nc(O[C@H]3CC[C@@H](Nc4ncc5[nH]ccc5n4)CC3)c2c1 [Compound 85, N-((1s,4s)-4-((7-Morpholino-1,6-naphthyridin-5-yl)oxy)cyclohexyl)-5H-pyrrolo[3,2-d]pyrimidin-2-amine] |
| < 0.1 | 0.01 to 0.5 | 0.01 to 0.5 | – | Cn1ccc2nc(N[C@H]3CC[C@@H](Oc4nc(N5CCOCC5)cc5ncccc45)CC3)ncc21 [Compound 87, 5-Methyl-N-((1s,4s)-4-((7-morpholino-1,6-naphthyridin-5-yl)oxy)cyclohexyl)-5H-pyrrolo[3,2-d]pyrimidin-2-amine] |
| 0.1 to 1 | 0.01 to 0.5 | 0.01 to 0.5 | – | Cn1cnc2cnc(N[C@H]3CC[C@@H](Oc4nc(N5CCOCC5)cc5ncccc45)CC3)nc21 [Compound 88, 9-Methyl-N-((1s,4s)-4-((7-morpholino-1,6-naphthyridin-5-yl)oxy)cyclohexyl)-9H-purin-2-amine] |
| 0.1 to 1 | 0.5 to 1 | 0.5 to 1 | – | c1cnc2cc(N3CCOCC3)nc(O[C@H]3CC[C@@H](Nc4ccn5nccc5n4)CC3)c2c1 [Compound 89, N-((1s,4s)-4-((7-Morpholino-1,6-naphthyridin-5-yl)oxy)cyclohexyl)pyrazolo[1,5-a]pyrimidin-5-amine] |
| < 0.1 | 0.5 to 1 | 0.5 to 1 | – | O=C(N[C@H]1CC[C@@H](Oc2nc(N3CCOCC3)cc3ncccc23)CC1)c1ccncc1 [Compound 113, N-((1s,4s)-4-((7-morpholino-1,6-naphthyridin-5-yl)oxy)cyclohexyl)isonicotinamide] |
| < 0.1 | 1 to 10 | 1 to 10 | – | O=C(N[C@H]1CC[C@@H](Oc2nc(N3CCOCC3)cc3ncccc23)CC1)c1cccnc1 [Compound 115, N-((1s,4s)-4-((7-morpholino-1,6-naphthyridin-5-yl)oxy)cyclohexyl)nicotinamide] |
| 0.1 to 1 | 1 to 10 | 1 to 10 | – | O=C(N[C@H]1CC[C@@H](Oc2nc(N3CCOCC3)cc3ncccc23)CC1)c1ccncn1 [Compound 118, N-((1s,4s)-4-((7-morpholino-1,6-naphthyridin-5-yl)oxy)cyclohexyl)pyrimidine-4-carboxamide] |
| < 0.1 | 1 to 10 | 1 to 10 | – | O=C(N[C@H]1CC[C@@H](Oc2nc(N3CCOCC3)cc3ncccc23)CC1)c1ccnnc1 [Compound 121, N-((1s,4s)-4-((7-morpholino-1,6-naphthyridin-5-yl)oxy)cyclohexyl)pyridazine-4-carboxamide] |
| 0.1 to 1 | 1 to 10 | 1 to 10 | 1 to 10 | O=C(N[C@H]1CC[C@@H](Oc2nc(N3CCOCC3)cc3ncccc23)CC1)c1cncnc1 [Compound 122, N-((1s,4s)-4-((7-Morpholino-1,6-naphthyridin-5-yl)oxy)cyclohexyl)pyrimidine-5-carboxamide] |
| 0.1 to 1 | 0.5 to 1 | 0.5 to 1 | 0.5 to 1 | O=C(N[C@H]1CC[C@@H](Oc2nc(N3CCOCC3)cc3ncccc23)CC1)c1ncccn1 [Compound 123, N-((1s,4s)-4-((7-Morpholino-1,6-naphthyridin-5-yl)oxy)cyclohexyl)pyrimidine-2-carboxamide] |
| < 0.1 | 0.01 to 0.5 | 0.01 to 0.5 | 0.01 to 0.5 | O=C(N[C@H]1CC[C@@H](Oc2nc(N3CCOCC3)cc3ncccc23)CC1)c1ccco1 [Compound 132, N-((1s,4s)-4-((7-Morpholino-1,6-naphthyridin-5-yl)oxy)cyclohexyl)furan-2-carboxamide] |
